Converted amounts (≈) assume the structure as drawn.
How the values were obtained:
[1] = tested on: A2058, human malignant melanoma cells; assay: MTT cell proliferation assay in A2058 cells; type: cell-based; conditions: A2058, 72 h, three days exposure
Protocol: (§1) MTT [3-(4,5-dimethylthiazol-2-yl)-2,5-diphenyltetrazolium bromide] incorporation based cell proliferation assay was performed using standard procedure with some modifications (38). The cytotoxic efficacy of the test compounds were evaluated in human malignant melanoma A2058 cells by MTT cell proliferation assay kit (Roche Applied Sciences, Germany). The assay was carried out according to the instruction provided by the vendor. Briefly, equal numbers of cells was plated in 96-well flat-bottomed plates in 100 μl of medium and were exposed to either DTIC or its derivative compounds at various concentrations up to 150 μg/ml for a period of three days. Vehicle control culture wells received only a maximum of 0.5% DMSO. Thereafter, 0.5 mg/ml of MTT reagent was added to each well and the microplate was incubated further for 4 h at 37° C. in presence of 5% CO2. Finally, the cells were solubilized by adding solubilizing solution and allowed to incubate at 37° C. overnight. After complete solubilization of the formazan crystals the absorbance was read at 540 nm in a microplate reader (BioRad, USA). The results (mean OD±SD) obtained from quadruplicate wells were used in calculation to determine the inhibition of cell proliferation (50% inhibitory concentration, IC50) of the test compounds.

[2] = tested on: normal human skin epithelial HS.531.sk cells; assay: LDH leakage assay on normal skin cells (tumor selectivity); type: cell-based; conditions: 120 μg/ml
Protocol: From the data obtained from the MTT assay (Table J), compound 1, compound 6 and compound 13 have been selected and their cytotoxicity potential has been further validated in LDH leakage assay. […] Cytotoxicity potential of DTIC and its derivative compounds were evaluated by measuring the leaked lactate dehydrogenase (LDH) into the culture supernatant (LDH Cytotoxicity Detection Roche Applied Sciences, Germany). The leaked LDH is directly proportional to the cell damage done by the cytotoxic compounds. In brief, cells were treated with test compounds at various concentrations and incubated for 48 h. Vehicle control culture wells received only a maximum of 0.5% DMSO. The cell free culture supernatants were mixed with catalyst and dye solution and allowed to incubate for 15 min at room temperature. Finally, the reaction was stopped and the optical density was measured at 492 nm in a microplate reader (BioRad, USA). The results (mean OD±SD) obtained from quadruplicate wells were used in calculation to determine the cytotoxicity potential (50% of inhibitory concentration, IC50) of the test compounds. A plot of loss of cell viability as indicated by the leakage of LDH versus drug concentration is depicted in FIG. 1.
Next, to check whether the DTIC derivative compounds can selectively kill the melanoma cells without or minimally affecting the normal cells, we assessed the effect of the test compounds on normal human skin epithelial HS.531.sk cells. […] Whereas, 120 μg/ml of DTIC, compound 1, […] caused 5.8%, 4.2%, 2.4%, and 2.4% reduction in normal cell viability, respectively.

[3] = tested on: MCF-7 human breast tumor cells; assay: MTT cell proliferation assay in MCF-7 cells; type: cell-based; conditions: MCF7, read-out: 50% of inhibitory concentration, IC50 MCF-7
Protocol: as §1
(§2) Anti-tumor growth potential of Compound 1 and Compound 6 were evaluated in MCF-7 human breast tumor cells, MIA-PaCa2 human pancreas tumor cells and DU145 human prostate tumor cells by using MTT based cell proliferation studies as described earlier (example 19). The results (mean OD±SD) obtained from quadruplicate wells were used in calculation to determine the inhibition of cell proliferation (50% of inhibitory concentration, IC50) of the test compounds (Table 4).

[4] = tested on: MIA-PaCa2 human pancreas tumor cells; assay: MTT cell proliferation assay in MIA-PaCa2 cells; type: cell-based; conditions: MIA PaCa-2, read-out: 50% of inhibitory concentration, IC50 MIA-PaCa2
Protocol: as §1, §2

[5] = tested on: DU145 human prostate tumor cells; assay: MTT cell proliferation assay in DU145 cells; type: cell-based; conditions: DU-145, read-out: 50% of inhibitory concentration, IC50 DU145
Protocol: as §1, §2

[6] = tested on: PARP cleavage in A2058 human melanoma cells; assay: PARP cleavage Western immunoblot assay; type: cell-based; conditions: 100 μg/ml, versus DTIC at the same concentration
From the text: Proteolytic cleavage of PARP by caspases is regarded as a hallmark of apoptosis. Caspase-3 cleaves the 113-kDa PARP to generate 89- and 24-kDa polypeptides (39). Next, with an intention to evaluate the comparative apoptotic potential of DTIC and test products compound 1, compound 6 and compound 13, PARP cleavage assay has been performed on A2058 cells. PARP cleavage was estimated by using Western immunoblot assay as described earlier (40). FIG. 3 illustrates comparative efficacy of PARP cleavage by the test compounds at a fixed dose of 100 μg/ml. […] No. 3 treated A2058 cells is 56.6% more than in DTIC treated cells at the same concentration.

SMILES	melting point	IC50 [1]	other results
CN(C)/N=N/c1ccsc1C(=O)[O-].[K+]	274 to 280 °C		
CN(C)/N=N/c1ccsc1C(N)=O [Compound 1, 3-[(dimethylamino)diazenyl]thiophene-2-carboxamide]	168 to 170 °C	78.7 µg/mL (≈ 397 µM)	reduction in normal cell viability [2]: 4.2%; IC50 [3]: 130 µg/mL (≈ 657 µM); IC50 [4]: 168 µg/mL (≈ 850 µM); IC50 [5]: 153 µg/mL (≈ 773 µM)
CN(C)/N=N/c1c(Br)csc1C(N)=O [Compound 2, 3-[(dimethylamino)diazenyl]-4-bromothiophene-2-carboxamide]	194 to 196 °C	113 µg/mL (≈ 409 µM)	
CN(C)/N=N/c1cc([N+](=O)[O-])sc1C(N)=O [Compound 3, 3-[(dimethylamino)diazenyl]-5-nitrothiophene-2-carboxamide]			reduction in normal cell viability [2]: 2.4%; expression of cleaved subunit of PARP at 89 kDa, more than in DTIC treated cells [6]: 56.6%
COc1c(C(N)=O)sc(C(N)=O)c1/N=N/N(C)C [Compound 4, 4-[(dimethylamino)diazenyl]-3-methoxythiophene-2,5-dicarboxamide]	226 to 228 °C		reduction in normal cell viability [2]: 2.4%
CN(C)/N=N/c1cc(-c2ccccc2)sc1C(N)=O [Compound 5, 3-[(dimethylamino)diazenyl]-5-phenylthiophene-2-carboxamide]	220 to 222 °C		
CN(C)/N=N/c1cc([N+](=O)[O-])sc1C(=O)O [Compound 7, 3-[(dimethylamino)diazenyl]-5-nitrothiophene-2-carboxylic acid]	184 to 186 °C		
CN(C)/N=N/c1cc(-c2ccccc2)sc1C(=O)O [Compound 8, 3-[(dimethylamino)diazenyl]-5-phenylthiophene-2-carboxylic acid]	162 to 166 °C		
CN(C)/N=N/c1ccsc1C(=O)NCCO [Compound 9, {3-[(dimethylamino)diazenyl] (2-thienyl)}-N-(2-hydroxyethyl)-carboxamide]	118 to 122 °C	214 µg/mL (≈ 884 µM)	
CNC(=O)c1sccc1/N=N/N(C)C [Compound 10, {3-[(dimethylamino)diazenyl](2-thienyl)}-N-methylcarboxamide]	98 to 102 °C	179 µg/mL (≈ 842 µM)	

More lines, main results first:

melting point	IC50 [1]	SMILES	other results
	164 µg/mL (≈ 681 µM)	CN(C)/N=N/c1ccsc1C(=O)NCCN [Compound 11, N-(2-aminoethyl){3-[(dimethylamino)diazenyl](2-thienyl)}-carboxamide]	
128 to 130 °C	165 µg/mL (≈ 832 µM)	CN(C)/N=N/c1csc(C(N)=O)c1 [Compound 12]	
168 to 172 °C	48.8 µg/mL (≈ 246 µM)	CN(C)/N=N/c1cscc1C(N)=O [Compound 13, 4-[(dimethylamino)diazenyl]thiophene-3-carboxamide]	
190 to 194 °C	147 µg/mL (≈ 805 µM)	Cn1nnc2sc(N)cc2c1=O [Compound 17, 6-amino-3-methylthiopheno[2,3-d]1,2,3-triazin-4-one]	
220 to 222 °C		Cn1nnc2cc(-c3ccccc3)sc2c1=O [Compound 18, 3-methyl-6-phenylthiopheno[3,2-d]1,2,3-triazin-4-one]	

Source: patent publication US8258119B2, “Anti-cancer drugs and uses relating thereto for metastatic malignant melanoma and other cancers” (Kasina Laila Innova Pharmaceuticals, priority 2008, dated 2012)
